Measured values taken from BindingDB's records for doi:10.1016/j.bmcl.2012.10.009 (Abbott Laboratories, 2012).

Test: Inhibition of PLK1 in human MIAPaCa2 cells after 48 hrs by MTT assay

EC50 [nM]	SMILES
1050	CC(C)(C)Nc1c(Nc2ccnc(Nc3ccc(-c4ccncc4)cc3)n2)c(=O)c1=O
> 30000	CC(C)(C)Nc1c(Nc2ccnc(Nc3ccc4c(c3)Cc3ccccc3-4)n2)c(=O)c1=O
> 30000	CC(C)(C)Nc1c(Nc2ccnc(Nc3ccc(-c4ccccc4)cc3)n2)c(=O)c1=O
8890	CC(C)(C)Nc1c(Nc2ccnc(Nc3ccc(N4CCOCC4)cc3)n2)c(=O)c1=O
8320	CC(C)(C)Nc1c(Nc2ccnc(Nc3ccc(-c4csnn4)cc3)n2)c(=O)c1=O
8280	CC(C)(C)Nc1c(Nc2ccnc(Nc3ccc(-c4ccccn4)cc3)n2)c(=O)c1=O
5000	CC(C)(C)Nc1c(Nc2ccnc(Nc3ccc4c(c3)[nH]c3ccccc34)n2)c(=O)c1=O
2860	CC(C)(C)Nc1c(Nc2ccnc(Nc3ccc4c(c3)CCO4)n2)c(=O)c1=O
2860	CC(C)(C)Nc1c(Nc2ccnc(Nc3ccc4ncsc4c3)n2)c(=O)c1=O
2550	CC(C)(C)Nc1c(Nc2ccnc(Nc3ccc(-c4cccnc4)cc3)n2)c(=O)c1=O
1610	CC(C)(C)Nc1c(Nc2ccnc(Nc3ccc(-c4cn[nH]c4)cc3)n2)c(=O)c1=O
1470	CC(=O)N1CCc2cc(Nc3nccc(Nc4c(NC(C)(C)C)c(=O)c4=O)n3)ccc21
1470	CC(C)(C)Nc1c(Nc2ccnc(Nc3ccc4[nH]ncc4c3)n2)c(=O)c1=O
